Structures are written as SMILES. Read-outs that look alike come from different tables or passages of the source.

Assay [1] concerns recombinant wt SARS-CoV-2-mCherry (rWA1). The assay can be described thus: microbe, parasite or virus in culture. It is filed as cell-based.
Assay [2] deals with wild-type VSV-G-3CL^pro-L. As to the kind of experiment: microbe, parasite or virus in culture. It is filed as cell-based.

On to `CC(C)(C)[C@H](NC(=O)C(F)(F)F)C(=O)N1C[C@H]2[C@@H]([C@H]1C(=O)N[C@H](C#N)C[C@@H]1CCNC1=O)C2(C)C` [Nirmatrelvir, nirmatrelvir], for which the IC50 in assay [1] (Severe acute respiratory syndrome coronavirus 2, read-out: IC50 48 hpi) was 8.68 nM; in assay [1] (Severe acute respiratory syndrome coronavirus 2, read-out: IC50 72 hpi), 8.51 nM; in assay [2] (Vesicular stomatitis virus, BHK-21, 24 h, read-out: half maximal inhibitor concentration (IC50) of virus replication), roughly 185 nM. Also, the replication inhibited in assay [2] was 10^6 fold.

The values above are taken from publication PMC9765458 (Science Translational Medicine, 2022).
